Experimental data published in US10836743B2, “Fluorinated cyclopropylamine compound, preparation method therefor, pharmaceutical composition thereof, and uses thereof” (SHANGHAI INSTITUTE OF MATERIA MEDICA, CHINESE ACADEMY OF …, priority 2016, dated 2020).
Read-outs that look alike come from different tables or passages of the source.

System: leukemia cells MV4-11
Test: Inhibitory activity on growth by MTS method
Format: cell-based
Conditions: Homo sapiens
Protocol: 2. Test of Inhibitory Activities of Compound on Growth by MTS Method Experimental Principle:
MTS assay detects the inhibitory effect of the tested compound to the growth of leukemia cells MV (4:11). The principle is that succinate dehydrogenase in mitochondria in living cells can reduce exogenous thiazole blue to insoluble blue crystal Formazan.
• 1. MV4-11 cells in logarithmic growth phase were accurately counted at 16000 cells/mL, and the diluted cell solution was added to 96-well plates at 90 μL per well. • 2. Fresh medium was taken and sequentially added to a 96-well plate with cell fluid at 90 μL per well. • 3. […] 2 μL of the diluted compound was respectively added to a 96-well plate containing 98 μL of blank medium, and for DMSO group, 98 μL of blank medium was added into 2 μL of DMSO, and mixed for further use. • 5. The compound mixed with the medium was separately added to a 96-well plate in which cells were plated, in triplicate, 20 μL per well, and were mixed. The blank group was added with 200 μL of IMDM medium, and the DMSO group was added with 180 μL of the cell-containing medium in DMSO diluted with the medium. • 6. […]

[1] = 72 h, MV4-11, 3 days, read-out: MTS 3 D
[2] = 240 h, MV4-11, 10 days, read-out: MTS 10 D

Compound	IC50 [1] [nM]	IC50 [2] [nM]
FC1(CN[C@@H]2C[C@H]2c2ccccc2)CCN(Cc2ccccc2)CC1 (relative stereo) [Example A6, N-((1-Benzyl-4-fluoropiperidin-4-yl)methyl)-trans-2-phenylcyclopropylamine]	> 20000	1020 ± 2440
O=C(CCc1ccccc1)N1CCC(F)(CN[C@@H]2C[C@H]2c2ccccc2)CC1 (relative stereo) [Example A8, 1-(4-fluoro-4-(((trans-2-phenylcyclopropyl)amino)methyl)piperidin-1-yl)-3-phenyl-1-propanone]	> 20000	270 ± 370
O=C(CCC1CCCCC1)N1CCC(F)(CN[C@@H]2C[C@H]2c2ccccc2)CC1 (relative stereo) [Example A10, 3-cyclohexyl-1-(4-fluoro-4-(((trans-2-phenylcyclopropyl)amino)methyl)piperidin-1-yl)-1-propanone]	> 20000	600 ± 1090
FC1(CN[C@@H]2C[C@H]2c2ccccc2)CCN(CCCc2ccccc2)CC1 (relative stereo) [Example A12, N-((4-fluoro-1-(3-phenylpropyl)piperidin-4-yl)methyl)-trans-2-phenylcyclopropylamine]	> 20000	960
FC1(CN[C@@H]2C[C@H]2c2ccccc2)CCN(CCCC2CCCCC2)CC1 (relative stereo) [Example A14, N-((1-(3-Cyclohexylpropyl)-4-fluoropiperidin-4-yl)methyl)-trans-2-phenylcyclopropylamine]	8170 ± 350	13000 ± 420
CN1CCC(F)(CN[C@@H]2C[C@H]2c2ccccc2)CC1 (relative stereo) [Example A15, N-((4-Fluoro-1-methylpiperidin-4-yl)methyl)-trans-2-phenylcyclopropylamine]	> 20000	330 ± 160
CS(=O)(=O)c1ccc(CN2CCC(F)(CN[C@@H]3C[C@H]3c3ccccc3)CC2)cc1 (relative stereo) [Example A16, N-((4-Fluoro-1-(4-(methylsulfonyl)benzyl)piperidin-4-yl)methyl)-trans-2-phenylcyclopropylamine]	> 20000	
FC1(CN[C@@H]2C[C@H]2c2ccccc2)CCCCC1 (relative stereo) [Example A18, N-((1-Fluorocyclohexyl)methyl)-trans-2-phenylcyclopropylamine]	> 20000	3000 ± 5190
CS(=O)(=O)N1CCC(F)(CN[C@@H]2C[C@H]2c2ccccc2)CC1 (relative stereo) [Example A93, N-((4-Fluoro-1-(methylsulfonyl)piperidin-4-yl)methyl)-trans-2-phenylcyclopropylamine]	> 20000	239 ± 4
O=C(OCC1CNC1)N1CCC(F)(CN[C@@H]2C[C@H]2c2ccccc2)CC1 (relative stereo) [Example A94, Azetidin-3-ylmethyl 4-fluoro-4-(((trans-2-phenylcyclopropyl)amino)methyl)piperidine-1-carboxylate]	> 20000	39 ± 11
O=C(OC1CCNCC1)N1CCC(F)(CN[C@@H]2C[C@H]2c2ccccc2)CC1 (relative stereo) [Example A95, Piperidin-4-yl 4-fluoro-4-(((trans-2-phenylcyclopropyl)amino)methyl)piperidine-1-carboxylate]	> 20000	1240 ± 844
N#Cc1ccc(CN2CCC(F)(CN[C@@H]3C[C@H]3c3ccccc3)CC2)cc1 (relative stereo) [Example A96, 4-((4-Fluoro-4-(((trans-2-phenylcyclopropyl)amino)methyl)piperidin-1-yl)methyl)benzonitrile]	> 20000	159 ± 74
FC1(CN[C@@H]2C[C@H]2c2ccccc2)CCN(Cc2ccsc2)CC1 (relative stereo) [Example A98, N-((4-Fluoro-1-(thiophen-3-ylmethyl)piperidin-4-yl)methyl)-trans-2-phenylcyclopropylamine]	> 20000	64 ± 26
